# Data from patent US8637679B2, “Process for the isolation of organic compounds useful for the treatment of cancer” (Council of Scientific and Industrial Research, priority 2011, dated 2014).
# What was measured:
# Molt-4 = experiment: MTT cell viability assay, Molt-4; format: cell-based, human; details: Homo sapiens; Molt-4, 48 hrs
# Protocol: (§1) Human cervical cancer cell lines (HeLa, ME-180 and SiHa), brain tumor cell lines (U87MG, U373MG, U87MG EGFRvIII, T98G, A172 and LN229), lymphoid leukemia (MOLT-3, MOLT-4, REH and CEMC-7), myloid leukemia (K562), pancreatic cancer (MIAPaCa-2, AsPC-1, Panc-1 and Panc 10.05), lung cancer (A549) and colon cancer (HCT116 and SW480) cell lines from American Type Culture Collection, Manassas, Va., USA were grown in IMDM or RPMI (cell specific) Medium supplemented with 10% fetal bovine serum and 1% antibiotic-antimycotic. Cells were cultured in 37° C. in an atmosphere of 5% CO2.
# (§2) Viability of cancer cell lines after treatment as at the indicated times was determined by MTT assay. Briefly, 10,000 cells were plated in triplicate in 96 well plates and incubated for 24 and 48 hours in complete media in presence of varying dose of mahanine (0-50 μM). 100 ug MTT was added in each well. Incubate the plate for 1-4 hours at 37° C. and humidified 5% CO2 atmosphere. Absorbance was recorded at 550 nm with 96 well plate readers.
# LN229 = experiment: MTT cell viability assay, LN229; format: cell-based, human; details: Homo sapiens, LN-229; LN229, 48 hrs
# Protocol: as §1, §2
# MIAPaCa-2 = experiment: MTT cell viability assay, MIAPaCa-2; format: cell-based, human; details: Homo sapiens, MIA PaCa-2; MIAPaCa-2, 48 hrs
# Protocol: as §1, §2
# AsPC1 = experiment: MTT cell viability assay, AsPC1; format: cell-based, human; details: Homo sapiens; AsPC1, 48 hrs
# Protocol: as §1, §2
# HCT116 = experiment: MTT cell viability assay, HCT116; format: cell-based, human; details: Homo sapiens, HCT-116; HCT116, 48 hrs
# Protocol: as §1, §2
# ME180 = experiment: 7-AAD flow cytometric apoptosis, ME180; format: cell-based, human; details: ME180, 25 μM mahanine
# Protocol: U87MG, LN229, HeLa, SiHa and ME180 (1×10^6 cells) cells were cultured in 6-well plates in presence or absence of Mahanine (25 μM) for 24 hrs. Cells were washed in PBS, incubated with 7-Aminoactinomycin D (7-AAD) at 4° C. for 20 min and processed. Data acquisition was done on a FACSCalibur flow cytometer (BD) at excitation wavelength at 488 nm and emission wavelength at 647 nm and analyzed with CellQuestPro software.
# Hsp90-Cdc37 complex = experiment: Co-immunoprecipitation of Hsp90-Cdc37 complex; format: cell-based, human
# Protocol: Different human cancer cells (1×10^6 cells) were incubated with complete medium alone or with different dose of Mahanine (10-20 μM) as indicated. Cells were detached using trypsin-EDTA solution. They were collected by centrifugation at 1500 g for 10 mins and lysed by sonication. Aliquots containing 60 μg total cellular protein were separated by 10% SDS-PAGE and transferred to nitrocellulose membrane (MILIPORE, Bedford, Mass., USA). Membrane was blocked with blocking buffer for 1 hour at room temperature and probed with desired primary antibody Hsp90, Hsp70, Hsp40, p23, HOP, Cdc37, B-Raf, Stat-3, Bcl-xl, Akt, PARP, β-actin (Cell signaling technology, USA) and caspase-3 (Santa Cruz, USA), caspase9, cytochrome c (cell signaling technology, USA) for overnight at 4° C. followed by HRP conjugated secondary antibody and detected by ECL. For the detection of association of the Hsp90-Cdc37, Hsp90-p23 and Hsp90-HOP, total cell lysate (400 μg) was treated with anti-Hsp-90 antibody (1:100 dilutions) and incubated overnight at 4° C. The chaperonic complex was resolved by SDS-PAGE (10%), transferred and probed separately with anti-Cdc37, anti-HOP, anti-p23 and anti-Hsp-90 antibodies. In the few immunoprecipitation experiments anti-Cdc37 used as precipitating antibody and Hsp90 was used as detection antibody. For the proteasomal inhibition assay cells were pretreated with 10 μM MG132 for 1 hr and then cells are exposed in 20 μM mahanine for 24 hrs. For proteasomal inhibition assay at 6 hrs incubation in MIAPaCa-2, cells were pre-incubated with 20 μM MG132 for 1 hr and then cells were exposed in 30 μM mahanine.
# human Hsp90 = experiment: Surface plasmon resonance binding to immobilized Hsp90; details: SPR, Hsp90-mahanine complex
# Protocol: The portion of the sensorgram which corresponds to the dissociation of mahanine from Hsp90 was analyzed by the BIA evaluation program 2.1 to obtain the dissociation rate (kd) (FIG. 22). The experimental data fits well with the single exponential kinetic model used. Some experiments were repeated at a flow rate of 5 μl/min to check the effect of possible rebinding. Rebinding and mass transfer limitation was also checked by the repetition of the experiments at lower levels of immobilized Hsp90. […] Using the corresponding kd values nonlinear curve fitting of the association phase of the corresponding sensorgram was carried out with the BIA evaluation program 2.1 to obtain association rate (ka).
# All the solutions were passed through a 0.22 micron Millipore filter and de-gassed in vacuum for 6-7 minutes at room temperature. For coupling Hsp90 to the SPR sensor chips, 400 μl (50 μg/ml) human Hsp90 was dialysed over night at 4° C. against coupling buffer containing 5 mM Na2HPO4, pH 7.4 and 150 mM NaCl to remove Tris, which interferes with the coupling. Before coupling, carboxymethyl-dextran sensor chips (CM5, Lot 1170768, Biacore, Upsala Sweden) were incubated with running buffer containing 10 mM HEPES, pH 7.4, 0.15 M KCl and 0.001% Tween-20 to prevent the unspecific binding of proteins to the capillaries in a BIAcore apparatus for 10 minutes at 25° C. at a flow rate of 5 μl/min. […]
# [1] = In vivo bioavailability after oral feeding; design: species or system Balb/c mice; details: after oral administration
# Protocol: EtOAc extract of Murraya koenigii was orally feeded to normal healthy Balb/c (100 mg/kg body weight) and blood was collected from retro orbital plexus after 30 min interval by glass capillary. Control blood was collected from the mice before the […] of extract. The Institutional Animal Ethical Committee had approved the study. Blood serum was isolated and the serum protein was separated by centrifugation in ice-cold acetone. Supernatant was evaporated to dryness and residual part was dissolved in minimum volume of MeOH and injected into the HPLC column.
structure (smiles),measurement,setting,value
"CC(C)=CCCC1(C)C=Cc2c(c(C)cc3c2[nH]c2cc(O)ccc23)O1 (centres unmarked) [Mahanine, mahanine]",IC50,Molt-4,10.7 ± 0.6 µM
same,IC50,LN229,13.7 ± 0.3 µM
same,IC50,MIAPaCa-2,13.9 µM
same,IC50,AsPC1,17.2 ± 0.7 µM
same,IC50,HCT116,13.5 ± 0.8 µM
same,apoptosis (7-AAD+ve cells),ME180,80.5%
same,dose needed to initiate dissociation of Hsp90-Cdc37,"Hsp90-Cdc37 complex; HeLa, 24 hr",17.5 µM
same,dose adequate to begin Hsp90-Cdc37 dissociation,"Hsp90-Cdc37 complex; MIAPaCa2, 24 hr",12.5 µM
same,dose showing significant decrease of association of Hsp90-Cdc37 complex,"Hsp90-Cdc37 complex; U87MG, 24 hr",15 µM
same,Dissociation constant (KD) (kd/ka),human Hsp90,4.99 µM
same,secondary metabolites in blood (mass spectroscopy),[1],no production of secondary metabolites
